Patent US20220289679A1, “HETEROCYCLIC COMPOUND” (Takeda Pharmaceutical Company Limited, priority 2019, published 2022)

These compounds were tested against T1, human GCS (glucosylceramide synthase) (Homo sapiens, UniProt Q16739) (assay: Glucosylceramide Synthase (GCS) Assay). Details: test compound 10 μM; microsome fraction of Expi293F cells expressing human GCS; 1.7 μM UDP-glucose, 3 μM C8 ceramide; room temperature 60 min; C8 glucosylceramide by Rapidfire MS/MS; read-out: GCS enzyme inhibitory rate at 10 μM (%).
T1 construct: made in house; host or cells: Expi293F cells (transient expression; microsome fraction)
T1 sequence (Q16739 1-394): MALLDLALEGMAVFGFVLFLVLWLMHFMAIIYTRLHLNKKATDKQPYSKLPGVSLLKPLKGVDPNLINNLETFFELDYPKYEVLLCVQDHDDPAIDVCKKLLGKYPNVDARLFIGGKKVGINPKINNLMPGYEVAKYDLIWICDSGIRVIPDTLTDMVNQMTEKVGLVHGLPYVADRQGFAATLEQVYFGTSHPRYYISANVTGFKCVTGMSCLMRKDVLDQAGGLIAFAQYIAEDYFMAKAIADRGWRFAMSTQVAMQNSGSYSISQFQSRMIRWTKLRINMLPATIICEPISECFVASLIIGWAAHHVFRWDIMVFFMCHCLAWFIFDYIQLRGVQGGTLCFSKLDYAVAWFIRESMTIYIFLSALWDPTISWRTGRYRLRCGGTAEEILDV
Assay type: biochemical
Protocol: In enzyme assay, a microsome fraction obtained by transient expression by Expi293F™ cells (catalog number: A14527, Thermo Fisher Scientific) was used as a glucosylceramide synthase source. Liposomal C8 ceramide and UDP-glucose were used as substrates. For each substrate concentration, 1.7 μM UDP-glucose, which is equal to the Km value, and 3 μM C8 ceramide were used. After the enzymatic reaction, the analysis was performed with Rapidfire MS/MS (API-4000™, SCIEX), and C8 glucosylceramide was quantified to evaluate the inhibitory activity of the test compound against glucosylceramide synthase activity.
PcDNA3.3TOPO vector (catalog number: K830001, Thermo Fisher Scientific) into which the human GCS gene was inserted was introduced into Expi293F™ Cells (catalog number: A14527, Thermo Fisher Scientific) by using ExpiFectamine™ 293 Transfection Kit (catalog number: A14525, Thermo Fisher Scientific). The cultured cells were dissolved in D-PBS (catalog number: 048-29805, Fuji Film Wako Pure Chemical Industries, Ltd.) containing 1 mM PMSF, and the solution was allowed to stand on ice for 30 minutes, and then subjected to cell disruption (homogenized). The disruption solution was centrifuged at 10,000×g for 20 minutes at 4° C., and the obtained supernatant was centrifuged at 142,400×g for 60 minutes at 4° C. The obtained precipitate was resuspended in a D-PBS solution containing 1 mM PMSF, and homogenized again to prepare as a microsome fraction. Protein quantification was performed by the CBB method.
A 1 mM compound solution prepared by dissolving the test compound in DMSO was added to a 384-well plate by 100 nL so that the final concentration of the test compound was 10 μM. Next, a substrate solution consisting of 3.4 μM UDP-glucose and 6 μM C8 ceramide was added by 5 μL, followed by an enzyme solution consisting of a 25 μg/mL microsome fraction by 5 μL. C8 ceramide was prepared from liposomes composed of 15 mol % C8 ceramide and 85 mol % dioleoyl phosphatidylcholine (1,2-dioleoyl-sn-glycero-3-phosphocholine: DOPC). The enzymatic reaction was carried out in a solution consisting of 20 mM tris-hydrochloric acid buffer (pH 7.5), 0.01% Tween 20, 0.01% bovine serum albumin and 1 mM dithiothreitol at room temperature for 60 min. Then, a solution consisting of 75% isopropanol and 1% formic acid containing 0.25 μM N-Octadecanoyl-D35-psichosine (catalog number: 1914, Matreya) as an internal standard substance was added by 60 μL to stop the enzymatic reaction. 5 μL of the centrifugal supernatant of the obtained reaction product was analyzed by Rapidfire MS/MS (Agilent Technologies) using API-4000™ (SCIEX), and the C8 glucosylceramide was quantified to evaluate the inhibitory activity of the test compound against the glucosylceramide synthase activity. The inhibitory activity of the test compound was evaluated when the C8 glucosylceramide level in the enzyme-free solution was considered as 100% inhibitory and the enzyme activity of the DMSO group in the absence of the compound was considered as 0% inhibitory.
In the case of COc1cc(F)ccc1-n1cccc(C(=O)Nc2ccn(-c3ccc(F)cc3)n2)c1=O [Example 8, 1-(4-fluoro-2-methoxyphenyl)-N-[1-(4-fluorophenyl)-1H-pyrazol-3-yl]-2-oxo-1,2-dihydropyridine-3-carboxamide], the inhibition at 10 µM is reported as 66%.
Work on COc1cc(F)ccc1-n1cccc(C(=O)Nc2ccc(C(F)(F)F)cc2)c1=O [Example 11, 1-(4-fluoro-2-methoxyphenyl)-2-oxo-N-[4-(trifluoromethyl)phenyl]-1,2-dihydropyridine-3-carboxamide] yielded an inhibition at 10 µM of 88%.
Compound O=C(Nc1ccn(-c2ccc(F)cc2)n1)c1cccn(-c2ccccc2OCC(F)(F)F)c1=O [Example 12, N-[1-(4-fluorophenyl)-1H-pyrazol-3-yl]-2-oxo-1-[2-(2,2,2-trifluoroethoxy)phenyl]-1,2-dihydropyridine-3-carboxamide] has an inhibition at 10 µM of 97%.
COc1ccc(NC(=O)c2cccn(-c3ccccc3OCC(F)(F)F)c2=O)cn1 [Example 13, N-(6-methoxypyridin-3-yl)-2-oxo-1-[2-(2,2,2-trifluoroethoxy)phenyl]-1,2-dihydropyridine-3-carboxamide] showed an inhibition at 10 µM of 96%.
Work on O=C(Nc1ccc(Cl)cc1)c1cccn(-c2ccccc2OCC(F)(F)F)c1=O [Example 14, N-(4-chlorophenyl)-2-oxo-1-[2-(2,2,2-trifluoroethoxy)phenyl]-1,2-dihydropyridine-3-carboxamide] yielded an inhibition at 10 µM of 99%.
In the case of O=C(Nc1ccc(OCC(F)(F)F)nc1)c1cccn(-c2ccccc2OCC(F)(F)F)c1=O [Example 15, 2-oxo-1-[2-(2,2,2-trifluoroethoxy)phenyl]-N-[6-(2,2,2-trifluoroethoxy)pyridin-3-yl]-1,2-dihydropyridine-3-carboxamide], the inhibition at 10 µM is reported as 100%.
COc1cc(F)ccc1-n1cccc(C(=O)Nc2ccc(OC(F)F)nc2)c1=O [Example 16, N-[6-(difluoromethoxy)pyridin-3-yl]-1-(4-fluoro-2-methoxyphenyl)-2-oxo-1,2-dihydropyridine-3-carboxamide] was tested, and the inhibition at 10 µM was 69%.
O=C(Nc1ccc(Oc2ccccc2)cc1)c1cccn(-c2ccc(F)cc2N2CCOCC2)c1=O [Example 17, 1-[4-fluoro-2-(morpholin-4-yl)phenyl]-2-oxo-N-(4-phenoxyphenyl)-1,2-dihydropyridine-3-carboxamide] was tested, and the inhibition at 10 µM was 81%.
COc1cc(F)ccc1-n1nccc(C(=O)Nc2ccc(Oc3ccccc3)cc2)c1=O [Example 18, 2-(4-fluoro-2-methoxyphenyl)-3-oxo-N-(4-phenoxyphenyl)-2,3-dihydropyridazine-4-carboxamide] gave an inhibition at 10 µM of 76%.
Compound COc1cc(F)ccc1-n1cccc(C(=O)Nc2ccc(N3CCOCC3)cc2)c1=O [Example 19, 1-(4-fluoro-2-methoxyphenyl)-N-[4-(morpholin-4-yl)phenyl]-2-oxo-1,2-dihydropyridine-3-carboxamide] has an inhibition at 10 µM of 55%.
O=C(Nc1ccc(C(F)(F)F)nc1)c1cccn(-c2ccccc2OCC(F)(F)F)c1=O [Example 20, 2-oxo-1-[2-(2,2,2-trifluoroethoxy)phenyl]-N-[6-(trifluoromethyl)pyridin-3-yl]-1,2-dihydropyridine-3-carboxamide] was tested, and the inhibition at 10 µM was 100%.
O=C(Nc1ccc(C2CC2)cn1)c1cccn(-c2ccccc2OCC(F)(F)F)c1=O [Example 21, N-(5-cyclopropylpyridin-2-yl)-2-oxo-1-[2-(2,2,2-trifluoroethoxy)phenyl]-1,2-dihydropyridine-3-carboxamide] showed an inhibition at 10 µM of 99%.
Compound O=C(Nc1ccn(CC(F)(F)F)n1)c1cccn(-c2ccccc2OCC(F)(F)F)c1=O [Example 22, 2-oxo-1-[2-(2,2,2-trifluoroethoxy)phenyl]-N-[1-(2,2,2-trifluoroethyl)-1H-pyrazol-3-yl]-1,2-dihydropyridine-3-carboxamide] has an inhibition at 10 µM of 77%.
COc1cc(F)ccc1-n1nccc(C(=O)Nc2ccc(OCC(F)(F)F)nc2)c1=O [Example 23, 2-(4-fluoro-2-methoxyphenyl)-3-oxo-N-[6-(2,2,2-trifluoroethoxy)pyridin-3-yl]-2,3-dihydropyridazine-4-carboxamide] showed an inhibition at 10 µM of 87%.
Compound N#Cc1ccc(NC(=O)c2cccn(-c3ccccc3OCC(F)(F)F)c2=O)cn1 [Example 24, N-(6-cyanopyridin-3-yl)-2-oxo-1-[2-(2,2,2-trifluoroethoxy)phenyl]-1,2-dihydropyridine-3-carboxamide] has an inhibition at 10 µM of 98%.
O=C(Nc1ccc(OCC(F)(F)F)nc1)c1cccn(-c2ccc(F)cc2N2CCOCC2)c1=O [Example 25, 1-[4-fluoro-2-(morpholin-4-yl)phenyl]-2-oxo-N-[6-(2,2,2-trifluoroethoxy)pyridin-3-yl]-1,2-dihydropyridine-3-carboxamide] gave an inhibition at 10 µM of 81%.
With O=C(Nc1ccc(OCC(F)(F)F)nc1)c1cccn(-c2ccc(F)cc2OCC(F)(F)F)c1=O [Example 26, 1-[4-fluoro-2-(2,2,2-trifluoroethoxy)phenyl]-2-oxo-N-[6-(2,2,2-trifluoroethoxy)pyridin-3-yl]-1,2-dihydropyridine-3-carboxamide] the inhibition at 10 µM was 100%.
With COCCOc1cc(F)ccc1-n1cccc(C(=O)Nc2ccc(OCC(F)(F)F)nc2)c1=O [Example 27, 1-[4-fluoro-2-(2-methoxyethoxy)phenyl]-2-oxo-N-[6-(2,2,2-trifluoroethoxy)pyridin-3-yl]-1,2-dihydropyridine-3-carboxamide] the inhibition at 10 µM was 75%.
Compound O=C(Nc1ccc(OCC(F)(F)F)nc1)c1ccnn(-c2ccc(F)cc2OCC(F)(F)F)c1=O [Example 29, 2-[4-fluoro-2-(2,2,2-trifluoroethoxy)phenyl]-3-oxo-N-[6-(2,2,2-trifluoroethoxy)pyridin-3-yl]-2,3-dihydropyridazine-4-carboxamide] has an inhibition at 10 µM of 97%.
N#Cc1cc(F)ccc1-n1cccc(C(=O)Nc2ccc(Oc3ccccc3)cc2)c1=O [Example 30, 1-(2-cyano-4-fluorophenyl)-2-oxo-N-(4-phenoxyphenyl)-1,2-dihydropyridine-3-carboxamide] gave an inhibition at 10 µM of 55%.
In the case of N#Cc1ccc(NC(=O)c2cccn(-c3ccccc3OCC(F)(F)F)c2=O)nc1 [Example 31, N-(5-cyanopyridin-2-yl)-2-oxo-1-[2-(2,2,2-trifluoroethoxy)phenyl]-1,2-dihydropyridine-3-carboxamide], the inhibition at 10 µM is reported as 92%.
CC(C)Cn1cc(NC(=O)c2cccn(-c3ccc(F)cc3OCC(F)(F)F)c2=O)cn1 [Example 33, 1-[4-fluoro-2-(2,2,2-trifluoroethoxy)phenyl]-N-[1-(2-methylpropyl)-1H-pyrazol-4-yl]-2-oxo-1,2-dihydropyridine-3-carboxamide] was tested, and the inhibition at 10 µM was 76%.
With O=C(Nc1ccc(CN2CCOCC2)cc1)c1cccn(-c2ccc(F)cc2OCC(F)(F)F)c1=O [Example 35, 1-[4-fluoro-2-(2,2,2-trifluoroethoxy)phenyl]-N-{4-[(morpholin-4-yl)methyl]phenyl}-2-oxo-1,2-dihydropyridine-3-carboxamide] the inhibition at 10 µM was 85%.
In the case of O=C(Nc1cnc(C(F)(F)F)nc1)c1cccn(-c2ccc(F)cc2OCC(F)(F)F)c1=O [Example 36, 1-[4-fluoro-2-(2,2,2-trifluoroethoxy)phenyl]-2-oxo-N-[2-(trifluoromethyl)pyrimidin-5-yl]-1,2-dihydropyridine-3-carboxamide], the inhibition at 10 µM is reported as 86%.
Work on O=C(Nc1cnc(C(F)(F)F)cn1)c1cccn(-c2ccc(F)cc2OCC(F)(F)F)c1=O [Example 37, 1-[4-fluoro-2-(2,2,2-trifluoroethoxy)phenyl]-2-oxo-N-[5-(trifluoromethyl)pyrazin-2-yl]-1,2-dihydropyridine-3-carboxamide] yielded an inhibition at 10 µM of 83%.
